According to publication PMC9487510, “A Novel Oral GyrB/ParE Dual Binding Inhibitor Effective against Multidrug-Resistant Neisseria gonorrhoeae and Other High-Threat Pathogens” (Antimicrobial Agents and Chemotherapy, 2022):
≈ marks a conversion by molar mass, not a printed value.

How the values were obtained:
[1] = system: N. gonorrhoeae (ATCC 700825); assay: Intravaginal infection model, ovariectomized BALB/c mice, strain ATCC 700825; type: in vivo, mouse (BALB/c); details: 26 h, IP 48 mg/kg QD, relative to vehicle or baseline
[2] = system: Neisseria gonorrhoeae strain H041; assay: Estradiol-treated mouse model of cervico-vaginal infection, strain H041; type: in vivo, mouse (BALB/c); details: 48 mg/kg, 5 QD, IP; P = 0.007
[3] = system: N. gonorrhoeae clinical isolates; assay: MIC, agar dilution (CLSI); type: cell-based, Neisseria gonorrhoeae
VRSA = assay: MIC, in vitro susceptibility testing (CLSI); type: cell-based, Staphylococcus aureus; details: Staphylococcus aureus, VRSA
VISA = assay: MIC, in vitro susceptibility testing (CLSI); type: cell-based, Staphylococcus aureus; details: Staphylococcus aureus, VISA
S. aureus VRSA, VRS-2 = assay: Neutropenic murine thigh infection model; type: in vivo, mouse (ICR); details: PO 50 mg/kg BID, 26 h after infection
E. coli = system: E. coli; set-up: method as in PMID 28483959, PMID 31315953; details: cited from earlier work

## CNC(C)C1CCC(N)C(OC2C(N)CC(N)C(OC3OCC(C)(O)C(NC)C3O)C2O)O1 (centres unmarked) [GEN, gentamicin]
[1]
  reduction in the bacterial counts: No significant reduction in the bacterial counts
[2]
  average CFU per mL of vaginal swab suspension over time: significantly different than the vehicle control group

## CC1(C)S[C@@H]2[C@H](NC(=O)Cc3ccccc3)C(=O)N2[C@H]1C(=O)O [Pen, penicillin]
[3]; 96 clinical isolates
  MIC50: 1 µg/mL (≈ 2.99 µM)
  MIC90: 2 µg/mL (≈ 5.98 µM)
  MIC range: <0.008 to 4 µg/mL
[3]; strain CDC1 (GCREF2012 016)
  MIC: 1 µg/mL (≈ 2.99 µM)
[3]; strain CDC2 (GCREF2012 045)
  MIC: 1 µg/mL (≈ 2.99 µM)
[3]; strain CDC3 (GCREF2013 013)
  MIC: 1 µg/mL (≈ 2.99 µM)
[3]; strain CDC4 (GCREF2013 030)
  MIC: 1 µg/mL (≈ 2.99 µM)
[3]; strain CDC5 (GCREF2012 001)
  MIC: 1 µg/mL (≈ 2.99 µM)
[3]; strain CDC6 (GCREF2012 002)
  MIC: 1 µg/mL (≈ 2.99 µM)
[3]; strain CDC8 (GCREF2012 004)
  MIC: 0.25 µg/mL (≈ 0.748 µM)
[3]; strain CDC9 (GCREF2012 005)
  MIC: 1 µg/mL (≈ 2.99 µM)
[3]; strain CDC10 (GCREF2012 006)
  MIC: 1 µg/mL (≈ 2.99 µM)
[3]; strain CDC11 (GCREF2012 007)
  MIC: 1 µg/mL (≈ 2.99 µM)
[3]; strain CDC12 (GCREF2012 008)
  MIC: 1 µg/mL (≈ 2.99 µM)
[3]; strain CDC13 (GCREF2012 009)
  MIC: 1 µg/mL (≈ 2.99 µM)
[3]; strain CDC14 (GCREF2012 010)
  MIC: 1 µg/mL (≈ 2.99 µM)
[3]; strain CDC15 (GCREF2012 011)
  MIC: 0.125 µg/mL (≈ 0.374 µM)
[3]; strain CDC16 (GCREF2012 012)
  MIC: 2 µg/mL (≈ 5.98 µM)
[3]; strain CDC18 (GCREF2012 014)
  MIC: 1 µg/mL (≈ 2.99 µM)
[3]; strain CDC19 (GCREF2012 015)
  MIC: 0.25 µg/mL (≈ 0.748 µM)
[3]; strain CDC20 (GCREF2012 017)
  MIC: 0.125 µg/mL (≈ 0.374 µM)
[3]; strain CDC21 (GCREF2012 018)
  MIC: 1 µg/mL (≈ 2.99 µM)
[3]; strain CDC22 (GCREF2012 019)
  MIC: 0.25 µg/mL (≈ 0.748 µM)
[3]; strain CDC23 (GCREF2012 020)
  MIC: 1 µg/mL (≈ 2.99 µM)
[3]; strain CDC24 (GCREF2012 021)
  MIC: 1 µg/mL (≈ 2.99 µM)
[3]; strain CDC25 (GCREF2012 022)
  MIC: 2 µg/mL (≈ 5.98 µM)
[3]; strain CDC26 (GCREF2012 023)
  MIC: 0.25 µg/mL (≈ 0.748 µM)
[3]; strain CDC27 (GCREF2012 024)
  MIC: 1 µg/mL (≈ 2.99 µM)
[3]; strain CDC28 (GCREF2012 025)
  MIC: 1 µg/mL (≈ 2.99 µM)
[3]; strain CDC29 (GCREF2012 026)
  MIC: 1 µg/mL (≈ 2.99 µM)
[3]; strain CDC30 (GCREF2012 027)
  MIC: 1 µg/mL (≈ 2.99 µM)
[3]; strain CDC31 (GCREF2012 028)
  MIC: 2 µg/mL (≈ 5.98 µM)
[3]; strain CDC32 (GCREF2012 029)
  MIC: 1 µg/mL (≈ 2.99 µM)
[3]; strain CDC33 (GCREF2012 030)
  MIC: 1 µg/mL (≈ 2.99 µM)
[3]; strain CDC34 (GCREF2012 031)
  MIC: 1 µg/mL (≈ 2.99 µM)
[3]; strain CDC35 (GCREF2012 032)
  MIC: 2 µg/mL (≈ 5.98 µM)
[3]; strain CDC36 (GCREF2012 033)
  MIC: 0.25 µg/mL (≈ 0.748 µM)
[3]; strain CDC37 (GCREF2012 034)
  MIC: 1 µg/mL (≈ 2.99 µM)
[3]; strain CDC38 (GCREF2012 035)
  MIC: 1 µg/mL (≈ 2.99 µM)
[3]; strain CDC39 (GCREF2012 036)
  MIC: 2 µg/mL (≈ 5.98 µM)
[3]; strain CDC40 (GCREF2012 037)
  MIC: 1 µg/mL (≈ 2.99 µM)
[3]; strain CDC41 (GCREF2012 038)
  MIC: 2 µg/mL (≈ 5.98 µM)
[3]; strain CDC42 (GCREF2012 039)
  MIC: 2 µg/mL (≈ 5.98 µM)
[3]; strain CDC43 (GCREF2012 040)
  MIC: 2 µg/mL (≈ 5.98 µM)
[3]; strain CDC45 (GCREF2012 042)
  MIC: 2 µg/mL (≈ 5.98 µM)
[3]; strain CDC46 (GCREF2012 043)
  MIC: 1 µg/mL (≈ 2.99 µM)
[3]; strain CDC47 (GCREF2012 044)
  MIC: 1 µg/mL (≈ 2.99 µM)
[3]; strain CDC48 (GCREF2012 046)
  MIC: 1 µg/mL (≈ 2.99 µM)
[3]; strain CDC49 (GCREF2012 047)
  MIC: 2 µg/mL (≈ 5.98 µM)
[3]; strain CDC50 (GCREF2012 048)
  MIC: 2 µg/mL (≈ 5.98 µM)
[3]; strain CDC51 (GCREF2012 049)
  MIC: 2 µg/mL (≈ 5.98 µM)
[3]; strain CDC52 (GCREF2012 050)
  MIC: 2 µg/mL (≈ 5.98 µM)
[3]; strain CDC53 (GCREF2012 051)
  MIC: 2 µg/mL (≈ 5.98 µM)
[3]; strain CDC54 (GCREF2012 052)
  MIC: 2 µg/mL (≈ 5.98 µM)
[3]; strain CDC55 (GCREF2013 001)
  MIC: 1 µg/mL (≈ 2.99 µM)
[3]; strain CDC56 (GCREF2013 002)
  MIC: 1 µg/mL (≈ 2.99 µM)
[3]; strain CDC57 (GCREF2013 003)
  MIC: 1 µg/mL (≈ 2.99 µM)
[3]; strain CDC58 (GCREF2013 004)
  MIC: 2 µg/mL (≈ 5.98 µM)
[3]; strain CDC59 (GCREF2013 044)
  MIC: 2 µg/mL (≈ 5.98 µM)
[3]; strain CDC60 (GCREF2013 005)
  MIC: 4 µg/mL (≈ 12 µM)
[3]; strain CDC61 (GCREF2013 006)
  MIC: 4 µg/mL (≈ 12 µM)
[3]; strain CDC62 (GCREF2013 007)
  MIC: 0.25 µg/mL (≈ 0.748 µM)
[3]; strain CDC64 (GCREF2013 009)
  MIC: 0.5 µg/mL (≈ 1.5 µM)
[3]; strain CDC65 (GCREF2013 010)
  MIC: 0.5 µg/mL (≈ 1.5 µM)
[3]; strain CDC66 (GCREF2013 011)
  MIC: 0.25 µg/mL (≈ 0.748 µM)
[3]; strain CDC67 (GCREF2013 014)
  MIC: 0.5 µg/mL (≈ 1.5 µM)
[3]; strain CDC68 (GCREF2013 016)
  MIC: 1 µg/mL (≈ 2.99 µM)
[3]; strain CDC69 (GCREF2013 017)
  MIC: 1 µg/mL (≈ 2.99 µM)
[3]; strain CDC70 (GCREF2013 018)
  MIC: 2 µg/mL (≈ 5.98 µM)
[3]; strain CDC71 (GCREF2013 019)
  MIC: 0.25 µg/mL (≈ 0.748 µM)
[3]; strain CDC72 (GCREF2013 020)
  MIC: 2 µg/mL (≈ 5.98 µM)
[3]; strain CDC73 (GCREF2013 021)
  MIC: 0.5 µg/mL (≈ 1.5 µM)
[3]; strain CDC74 (GCREF2013 022)
  MIC: 0.25 µg/mL (≈ 0.748 µM)
[3]; strain CDC75 (GCREF2013 023)
  MIC: 0.5 µg/mL (≈ 1.5 µM)
[3]; strain CDC76 (GCREF2013 024)
  MIC: 0.5 µg/mL (≈ 1.5 µM)
[3]; strain CDC77 (GCREF2013 025)
  MIC: 0.125 µg/mL (≈ 0.374 µM)
[3]; strain CDC78 (GCREF2013 026)
  MIC: 0.5 µg/mL (≈ 1.5 µM)
[3]; strain CDC79 (GCREF2013 027)
  MIC: 1 µg/mL (≈ 2.99 µM)
[3]; strain CDC80 (GCREF2013 028)
  MIC: 2 µg/mL (≈ 5.98 µM)
[3]; strain CDC81 (GCREF2013 029)
  MIC: 2 µg/mL (≈ 5.98 µM)
[3]; strain CDC82 (GCREF2013 031)
  MIC: 1 µg/mL (≈ 2.99 µM)
[3]; strain CDC83 (GCREF2013 032)
  MIC: 0.25 µg/mL (≈ 0.748 µM)
[3]; strain CDC84 (GCREF2013 033)
  MIC: 0.25 µg/mL (≈ 0.748 µM)
[3]; strain CDC87 (GCREF2013 036)
  MIC: 2 µg/mL (≈ 5.98 µM)
[3]; strain CDC88 (GCREF2013 037)
  MIC: 2 µg/mL (≈ 5.98 µM)
[3]; strain CDC89 (GCREF2013 038)
  MIC: 1 µg/mL (≈ 2.99 µM)
[3]; strain CDC90 (GCREF2013 039)
  MIC: 2 µg/mL (≈ 5.98 µM)
[3]; strain CDC91 (GCREF2013 040)
  MIC: 2 µg/mL (≈ 5.98 µM)
[3]; strain CDC92 (GCREF2013 041)
  MIC: 2 µg/mL (≈ 5.98 µM)
[3]; strain CDC93 (GCREF2013 042)
  MIC: 1 µg/mL (≈ 2.99 µM)
[3]; strain CDC94 (GCREF2013 043)
  MIC: 0.25 µg/mL (≈ 0.748 µM)
[3]; strain CDC95 (GCREF2013 045)
  MIC: 2 µg/mL (≈ 5.98 µM)
[3]; strain CDC96 (GCREF2013 046)
  MIC: 1 µg/mL (≈ 2.99 µM)
[3]; strain CDC97 (GCREF2013 047)
  MIC: 1 µg/mL (≈ 2.99 µM)
[3]; strain CDC98 (GCREF2013 048)
  MIC: 0.25 µg/mL (≈ 0.748 µM)
[3]; strain CDC99 (GCREF2013 012)
  MIC: 0.25 µg/mL (≈ 0.748 µM)
[3]; strain CDC100 (GCREF2013 015)
  MIC: 1 µg/mL (≈ 2.99 µM)

## CO[C@H]1/C=C/O[C@@]2(C)Oc3c(C)c(O)c4c(O)c(c(/C=N/N5CCN(C)CC5)c(O)c4c3C2=O)NC(=O)/C(C)=C\C=C\[C@H](C)[C@H](O)[C@@H](C)[C@@H](O)[C@@H](C)[C@H](OC(C)=O)[C@@H]1C [Rif, rifampicin]
VRSA; strain 2 25 23
  MIC: < 0.078 µg/mL
VRSA; strain 2 25 24
  MIC: < 0.078 µg/mL
VRSA; strain 2 25 25
  MIC: < 0.078 µg/mL
VRSA; strain 2 25 26
  MIC: < 0.078 µg/mL
VRSA; strain 2 25 27
  MIC: < 0.078 µg/mL
VRSA; strain 2 25 28
  MIC: < 0.078 µg/mL
VRSA; strain VRS2 (VRS-2)
  MIC: > 10 µg/mL
VISA; strain 2 11 43
  MIC: < 0.078 µg/mL
VISA; strain 2 11 56
  MIC: > 10 µg/mL
VISA; strain 2 11 57
  MIC: < 0.078 µg/mL
VISA; strain 2 11 61
  MIC: < 0.078 µg/mL
VISA; strain 2 11 71
  MIC: > 10 µg/mL
VISA; strain 2 11 78
  MIC: < 0.078 µg/mL
VISA; strain 2 11 86
  MIC: > 10 µg/mL
VISA; strain 2 13 52
  MIC: > 10 µg/mL

## CC(=O)NC[C@H]1CN(c2ccc(N3CCOCC3)c(F)c2)C(=O)O1 [linezolid]
S. aureus VRSA, VRS-2
  bacterial count reduction in thigh: 3.41 log10

## C[C@@H]1CN2c3c(cc4c(N5C(=O)OC[C@@H]5C)noc4c3F)CC3(C(=O)NC(=O)NC3=O)[C@H]2[C@H](C)O1 [zoliflodacin]
E. coli
  MIC: 4 µg/mL (≈ 8.21 µM)
